Results from US20260297086A1, “CRYSTALLINE PROLYL HYDROXYLASE DOMAIN-CONTAINING PROTEIN (PHD) INHIBITOR AND USES THEREOF” (Insilico Medicine IP Limited, priority 2023, published 2026).

Tests used:
[1] = molecular target: PHD2 (Homo sapiens, UniProt Q9GZT9); experiment: PHD2 Enzymatic Assay (AlphaScreen); type: biochemical; conditions: PHD2 enzyme, 30 min preincubation at RT
Method: Example 1: PHD2 Enzymatic Assay Procedure
Compound DMSO stock preparation: Compound 1 was reconstituted into 20 mM stock by DMSO.
Compound storage: Compound 1 in DMSO was stored at RT in a desiccator for short-term storage (up to 3 months).
• Reference Roxadustat (FG-4592) was 3-fold serial diluted from 400 μM for 10 doses in DMSO. • The compounds were 3-fold serial diluted from 400 μM for 10 doses in DMSO. • Prepared 200× positive control (400 μM, FG-4592) and 200× vehicle control (100% DMSO). • Centrifuged compound plates at 1000 rpm for 1 min.
• a) Transferred 40 nl compound dilutions into each well of assay plates using Echo 655; • b) Sealed the assay plate and centrifuge compound plates at 1000 rpm for 1 min. • c) Prepared and add 4 μL of the 2×PHD2 enzyme working solution to individual well of the assay plate. • d) Sealed the assay plate and centrifuge compound plates at 1000 rpm for 1 min. […]
• ALPHASCREEN signal (ALPcmpd) is calculated for each well • % Inhibition is calculated as follow:
[formula] • ALPpositive: The average ALP for the positive controls across the plate. • ALPvehicle: The average ALP for the negative controls across the plate. • Calculate IC50 and Plot effect-dose curve of compounds: • Calculated IC50 by fitting % inhibition values and log of compound concentrations to nonlinear regression (dose response−variable slope) with Graphpad 8.0. […]

[2] = test system: HIF1α (Caco2 cells); experiment: Caco2-HIF1α-HiBit assay; type: cell-based; conditions: Homo sapiens, Caco-2

Chain of PHD2 (Q9GZT9 whole entry): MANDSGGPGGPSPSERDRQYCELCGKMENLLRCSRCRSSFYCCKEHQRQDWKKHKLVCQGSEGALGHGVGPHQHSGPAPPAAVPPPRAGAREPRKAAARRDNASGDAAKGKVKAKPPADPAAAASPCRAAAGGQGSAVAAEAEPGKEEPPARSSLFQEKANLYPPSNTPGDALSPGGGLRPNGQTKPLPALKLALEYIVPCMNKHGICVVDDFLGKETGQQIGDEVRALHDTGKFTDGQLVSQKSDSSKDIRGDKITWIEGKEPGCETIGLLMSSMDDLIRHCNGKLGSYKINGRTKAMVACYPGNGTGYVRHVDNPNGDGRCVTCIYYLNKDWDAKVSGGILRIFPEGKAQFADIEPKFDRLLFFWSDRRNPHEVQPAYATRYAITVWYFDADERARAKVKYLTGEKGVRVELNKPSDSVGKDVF

CC(C)(C)OC(=O)N1CCN(c2ccc3c(O)c(C(=O)NCc4ccc(C#N)nc4)ncc3n2)CC1 [Compound 1, tert-butyl 4-(6-(((6-cyanopyridin-3-yl)methyl)carbamoyl)-5-hydroxy-1,7-naphthyridin-2-yl)piperazine-1-carboxylate]
IC50 [1]: < 5 nM | EC50 [2]: < 2500 nM
